The target of experiment [1] is T1, CDK2/Cyclin E1 (Homo sapiens, UniProt P24941).
T1 construct: purchased 14-475
Nature of the experiment: ADPGLO (CDK2/E1-37 C), ADP-Glo Luminescent Kinase Assay. It is filed as biochemical. Conditions: 0.18 nM CDK2/Cyclin E1, 100 μM ATP, Histone H1, 37° C. How it is done:
Inhibition of CDK2/Cyclin E1 activity by the presence of small molecules was evaluated using ADP-Glo Luminescent Kinase Assay (Promega). Activated CDK2/Cyclin E1 was incubated with its substrate Histone H1 (SignalChem H10-54N) in the kinase reaction buffer (100 μM ATP, 50 mM HEPES pH 7.5, 10 mM MgCl2, 1 mM EDTA, 2 mM DTT, 0.01% Brij35, 0.5 mg/mL BSA). Luminescence was recorded with an Envision plate reader (PerkinElmer).
Dose titrations of inhibitors in 100% DMSO were combined with 0.36 nM CDK2/Cyclin E1 in reaction buffer. The mixtures were incubated for 60 minutes at 37° C. before the addition of ATP and Histone H1 substrate to initiate the kinase reaction. The final conditions were 0.18 nM CDK2/Cyclin E1, 100 μM ATP, and 1.5 μM Histone H1. The reactions were incubated at 37° C. for 90 minutes before being stopped with the addition of ADP-Glo reagent. This mixture was incubated at room temperature for 60 minutes before Kinase Detection Solution is added to generate luminescence. The stopped reactions were analyzed on an Envision plate reader. The conversion ratios were normalized to yield % activity, plotted against compound concentration, and fit to a four-parameter equation to determine the IC50 for each compound.

The next experiment relates to Kuramochi cells. Nature of the experiment: IncuCyte Kuramochi Assay (cell proliferation). In kind it is cell-based. The settings on record: 72 h, Kuramochi cells labeled with mApple-H2B, cell count, read-out: IncuCyte - Kuramochi RB-WT: IC50. A digest of the protocol: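 GI50 came from dose-response fits of cell-count fold change between 0 and 72 h, normalized to DMSO controls. Counts were fluorescent nuclei from live-cell images over a 10-point, ½ log series starting at 20 μM.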

In experiment [2] the target is T1, CDK2/Cyclin E1. In words: Caliper Assay (LabChip EZ Reader mobility shift assay), inhibition of CDK2/Cyclin E1 activity. Conditions: 2.5 nM CDK2/Cyclin E1(14-475), 100 μM ATP, 30 min preincubation; read-out: Caliper Assay (CDK2/CCNE1): IC50. In kind it is biochemical. Put shortly: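 Compounds were preincubated 30 min with CDK2/Cyclin E1(14-475), then run for 100 min with 2.5 nM enzyme, 100 μM ATP and 1.5 μM 5-FAM-QSPKKG peptide in HEPES pH 7.5 (final). Reactions were EDTA-stopped and substrate-to-product conversion read by mobility shift. IC50 came from a four-parameter fit.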

This is an account of results in patent US20260151375A1, “CDK2 INHIBITORS AND METHODS OF USING THE SAME” (Cedilla Therapeutics, Inc., priority 2022, published 2026).

Turning to `O=C(c1cnn(Cc2cccc3c2CCNC3)c1)N1CC(c2nnc(C(F)(F)c3ccc(Cl)c(Cl)c3)o2)C2(C1)CN(C(=O)C1(C(F)(F)F)CC1)C2` (stereo not drawn) [I-106], the results for the IC50 against CDK2/Cyclin E1 [1] and with Kuramochi cells were over 10 µM and 5 to 10 µM, respectively.

`O=C(c1cnc(O)cn1)N1CC(c2nnc(C(COCc3ccccc3)c3cccc(C4CCCCC4)c3)o2)C2(C1)CN(C(=O)C1(C(F)(F)F)CC1)C2` (stereo not drawn) [I-107, (8-(5-(2-(benzyloxy)-1-(3-cyclohexylphenyl)ethyl)-1,3,4-oxadiazol-2-yl)-2-(1-(trifluoromethyl)cyclopropane-1-carbonyl)-2,6-diazaspiro[3.4]octan-6-yl)(5-hydroxypyrazin-2-yl)methanone]: the IC50 against CDK2/Cyclin E1 [1] was at most 0.5 µM; in the experiment on Kuramochi cells it was 0.5 to 5 µM.

Regarding `O=C(c1cnn(Cc2cccc3[nH]cnc23)c1)N1CC(c2nnc(C(F)(F)c3ccc(Cl)c(Cl)c3)o2)C2(C1)CN(C(=O)C1(C(F)(F)F)CC1)C2` (stereo not drawn) [I-108, (1-((1H-benzo[d]imidazol-4-yl)methyl)-1H-pyrazol-4-yl)(8-(5-((3,4-dichlorophenyl)difluoromethyl)-1,3,4-oxadiazol-2-yl)-2-(1-(trifluoromethyl)cyclopropane-1-carbonyl)-2,6-diazaspiro[3.4]octan-6-yl)methanone], the IC50 against CDK2/Cyclin E1 [1] was 0.5 to 5 µM; with Kuramochi cells, 5 to 10 µM.

On to `CC(c1nc(C2CN(C(=O)c3cnn(CC(=O)O)c3)CC23CN(C(=O)[C@H]2CC2(C)C)C3)no1)n1ccc(C2CCCC2)n1` (stereo partly drawn) [I-110, 2-(4-(8-(5-(1-(3-cyclopentyl-1H-pyrazol-1-yl)ethyl)-1,2,4-oxadiazol-3-yl)-2-((S)-2,2-dimethylcyclopropane-1-carbonyl)-2,6-diazaspiro[3.4]octane-6-carbonyl)-1H-pyrazol-1-yl)acetic acid], for which the figures for the IC50 against CDK2/Cyclin E1 [1] and in the experiment with Kuramochi cells were 5 to 10 µM and over 10 µM, respectively.

Take `CC(c1nc(C2CN(C(=O)c3cnn(Cc4nnnn4C)c3)CC23CN(C(=O)[C@H]2CC2(C)C)C3)no1)n1ccc(C2CCCC2)n1` (stereo partly drawn) [I-111, (8-(5-(1-(3-cyclopentyl-1H-pyrazol-1-yl)ethyl)-1,2,4-oxadiazol-3-yl)-2-((S)-2,2-dimethylcyclopropane-1-carbonyl)-2,6-diazaspiro[3.4]octan-6-yl)(1-((1-methyl-1H-tetrazol-5-yl)methyl)-1H-pyrazol-4-yl)methanone]: the IC50 on CDK2/Cyclin E1 [1] fell in the range of 0.5 to 5 µM; in the experiment with Kuramochi cells, 5 to 10 µM.

Consider `O=C(c1cncc(O)n1)N1CC(c2nnc(C(F)(F)c3ccc(Cl)c(Cl)c3)o2)C2(C1)CN(C(=O)[C@H]1CC1(F)F)C2` (stereo partly drawn) [I-112, (8-(5-((3,4-dichlorophenyl)difluoromethyl)-1,3,4-oxadiazol-2-yl)-2-((R)-2,2-difluorocyclopropane-1-carbonyl)-2,6-diazaspiro[3.4]octan-6-yl)(6-hydroxypyrazin-2-yl)methanone], for which the IC50 at CDK2/Cyclin E1 [1] and in the experiment on Kuramochi cells was over 10 µM each time.

For `O=C(c1cn[nH]c1)N1CC(c2nnc(C(F)(F)c3ccc(Cl)c(Cl)c3)o2)C2(C1)CN(C(=O)[C@H]1CC1(F)F)C2` (stereo partly drawn) [I-191, (8-(5-((3,4-dichlorophenyl)difluoromethyl)-1,3,4-oxadiazol-2-yl)-2-((R)-2,2-difluorocyclopropane-1-carbonyl)-2,6-diazaspiro[3.4]octan-6-yl)(1H-pyrazol-4-yl)methanone], the IC50 in the experiment on Kuramochi cells is over 10 µM; at CDK2/Cyclin E1 [2], 1 to 10 µM.

On to `CC1(C)C[C@@H]1C(=O)N1CC2(C1)CN(c1ncnc3ncsc13)CC2c1nnc(C(F)(F)c2ccc(Cl)c(Cl)c2)o1` (stereo partly drawn) [I-192, (8-(5-((3,4-dichlorophenyl)difluoromethyl)-1,3,4-oxadiazol-2-yl)-6-(thiazolo[4,5-d]pyrimidin-7-yl)-2,6-diazaspiro[3.4]octan-2-yl)((S)-2,2-dimethylcyclopropyl)methanone], for which the IC50 with Kuramochi cells lay within 5 to 10 µM; at CDK2/Cyclin E1 [2], 1 to 10 µM.

Consider `CC1(C)C[C@@H]1C(=O)N1CC2(CN(C(=O)c3cncs3)CC2c2cn(Cc3ccc(C4CC4)cc3)nn2)C1` (stereo partly drawn) [I-193], for which the values for the IC50 in the experiment with Kuramochi cells and on CDK2/Cyclin E1 [2] were over 10 µM and 1 to 10 µM, respectively.

Consider `CC1(C)C[C@@H]1C(=O)N1CC2(CN(C(=O)c3cncs3)CC2c2cn(Cc3ccc(C4(C(F)(F)F)CC4)cc3)nn2)C1` (stereo partly drawn) [I-194], for which the IC50 was over 10 µM with Kuramochi cells and 0.1 to 1 µM at CDK2/Cyclin E1 [2].

As to `CC1(C)C[C@@H]1C(=O)N1CC2(CN(C(=O)c3cncs3)CC2c2cn(Cc3cccc(C(F)(F)F)c3)nn2)C1` (stereo partly drawn) [I-195], the IC50 in the experiment with Kuramochi cells was over 10 µM; on CDK2/Cyclin E1 [2], 1 to 10 µM.

As for `CC(=O)N1CC2(C1)CN(C(=O)c1cncs1)CC2c1nnc(C(F)(F)c2ccc(Cl)c(Cl)c2)o1` (stereo not drawn) [I-196], the IC50 in the experiment on Kuramochi cells and at CDK2/Cyclin E1 [2] was over 10 µM throughout.

As for `O=C(c1cncs1)N1CC(c2nnc(Cc3ccc(Cl)c(Cl)c3)o2)C2(C1)CN(c1ccccn1)C2` (stereo not drawn) [I-197, (8-(5-(3,4-dichlorobenzyl)-1,3,4-oxadiazol-2-yl)-2-(pyridin-2-yl)-2,6-diazaspiro[3.4]octan-6-yl)(thiazol-5-yl)methanone], the IC50 in the experiment on Kuramochi cells and on CDK2/Cyclin E1 [2] was over 10 µM throughout.

For the compound `C=C(c1ccc(C(F)(F)c2nnc(C3CN(C(=O)c4cncs4)CC34CN(C(=O)[C@H]3CC3(C)C)C4)o2)cc1)C(F)(F)F` (stereo partly drawn) [I-198, (8-(5-(difluoro(4-(3,3,3-trifluoroprop-1-en-2-yl)phenyl)methyl)-1,3,4-oxadiazol-2-yl)-2-((S)-2,2-dimethylcyclopropane-1-carbonyl)-2,6-diazaspiro[3.4]octan-6-yl)(thiazol-5-yl)methanone], the IC50 was 0.5 to 5 µM with Kuramochi cells and 0.01 to 0.1 µM on CDK2/Cyclin E1 [2].

Regarding `CC1(C)C[C@@H]1C(=O)N1CC2(CN(C(=O)c3cnc(Br)s3)CC2c2nnc(C(F)(F)c3ccc(Cl)c(Cl)c3)o2)C1` (stereo partly drawn) [I-199], the IC50 in the experiment on Kuramochi cells is 5 to 10 µM; on CDK2/Cyclin E1 [2], over 10 µM.

Turning to `CC(=O)N1CC(c2nnc(C(F)(F)c3ccc(Cl)c(Cl)c3)o2)C2(C1)CN(C(=O)[C@H]1CC1(C)C)C2` (stereo partly drawn) [I-200], the IC50 in the experiment with Kuramochi cells and at CDK2/Cyclin E1 [2] was over 10 µM each time.

As for `CC1(C)C[C@@H]1C(=O)N1CC2(CN(C(=O)c3cncs3)CC2c2ncc(Cc3ccc(C(F)(F)F)c(Cl)c3)o2)C1` (stereo partly drawn) [I-201, (8-(5-(3-chloro-4-(trifluoromethyl)benzyl)oxazol-2-yl)-2-((S)-2,2-dimethylcyclopropane-1-carbonyl)-2,6-diazaspiro[3.4]octan-6-yl)(thiazol-5-yl)methanone], the IC50 with Kuramochi cells lay in the range of 5 to 10 µM; on CDK2/Cyclin E1 [2] it was 0.1 to 1 µM.

Take `CC1(C)C[C@@H]1C(=O)N1CC2(CN(C(=O)c3cncs3)CC2c2cn(Cc3ccc(C(F)(F)F)cc3)nn2)C1` (stereo partly drawn) [I-202]: the IC50 with Kuramochi cells and on CDK2/Cyclin E1 [2] was over 10 µM throughout.

For `O=C(CC(F)(F)F)N1CC(c2nnc(C(F)(F)c3ccc(Cl)c(Cl)c3)o2)C2(C1)CN(C(=O)CC(F)(F)F)C2` (stereo not drawn) [I-203], the IC50 in the experiment on Kuramochi cells and on CDK2/Cyclin E1 [2] was over 10 µM throughout.

Regarding `CC(=O)N1CC(c2nnc(C(F)(F)c3ccc(Cl)c(Cl)c3)o2)C2(C1)CN(C(C)=O)C2` (stereo not drawn) [I-204], the IC50 in the experiment with Kuramochi cells and at CDK2/Cyclin E1 [2] was over 10 µM throughout.

On to `O=C(N1CC(c2nnc(C(F)(F)c3ccc(Cl)c(Cl)c3)o2)C2(C1)CN(C(=O)C(F)(F)F)C2)C(F)(F)F` (stereo not drawn) [I-205, 1,1′-(8-(5-((3,4-dichlorophenyl)difluoromethyl)-1,3,4-oxadiazol-2-yl)-2,6-diazaspiro[3.4]octane-2,6-diyl)bis(2,2,2-trifluoroethan-1-one)], for which the results for the IC50 in the experiment with Kuramochi cells and on CDK2/Cyclin E1 [2] were 5 to 10 µM and over 10 µM, respectively.
